Here are results for 1 substance from US6642003B2, “Human glucose-dependent insulin-secreting cell line” (Cedars-Sinai Medical Center, priority 2001, dated 2003).

The test system of one test is PANC-1/IDX-1 cells. Kind of test: Immunofluorescence for IDX-1, PANC-1/IDX-1 cells. Type of test: cell-based, human. Here is the method:
PANC-1 cells were transfected with a pcDNA3 construct (Invitrogen; Carlsbad, Calif.) harboring the wild-type full-length IDX-1 cDNA using LipoTAXI (Catalog N. 204110; Mammalian Transfection Kit, Stratagene; La Jolla, Calif.). Control cells were transfected with the vector alone. The selection of positive (i.e. transfected) cells was carried out by culturing the cells in the presence of 400 μg/ml of G418 sulfate (GN-04, Omega; Tarzana, Calif.).
Cells were cultured on monocoated chamber slides (Nalge Nunc International; Naperville, Ill.) in the presence of GLP-1 (10 nM), or vehicle, for 72 h.
For the detection of IDX-1, slightly different conditions were used. Briefly: the concentration of paraformaldehyde was decreased to 2%, and the concentration of Triton to permeabilize the cells was raised to 0.2% Triton-X-100. Cells were then washed with 0.01 M PBS three times for 3-5 min, and non-specific binding was inhibited by using 5% chick serum in 0.01 M PBS, at room temperature for 60 min in a humid chamber. […] The percentage of IDX-1 containing cells was evaluated by counting the number of IDX-1 “positive” cells divided by the total number of cells identified by nuclear staining.

A further test relates to PANC-1 cells. Kind of test: Insulin release into culture medium (RIA), parental PANC-1 cells. Type of test: cell-based, human. Here is the method: Rat (ARIP) and human (PANC-1) ductal cell lines were respectively a gift from Dr. J. M. Egan (National Institute on Aging, Baltimore, Md.) or purchased from ATCC (American Type Culture Collection; Manassas, Va.). ARIP cells were cultured in F12 medium (Gibco-BRL, Gaithersburg; Md.) containing 100 μg/ml penicillin, 50 μg/ml streptomycin and 10% fetal calf serum (FCS; Gibco-BRL) at 37° C. under a humidified condition of 95% air and 5% CO2. PANC-1 cells were cultured in DMEM medium supplemented with antibiotics and FCS, as indicated for F12 medium. […]
PANC-1 (parental, IDX-1-transfected, and neomycin-transfected) cells and ARIP (only parental) cells were plated at density of 10^6 cells/well in a 6 well plate. […] Glucose-dependent insulin secretion was evaluated by culturing the cells in the presence of a determined concentration of GLP-1 (10 nM for 72 h) with increasing concentration of glucose in the culture medium ([…]). Insulin released into the medium was measured by RIA (Linco Research Inc.; St. Charles, Mass.). […]
Total cellular protein content was measured by utilizing the Bradford method (Bio-Rad; Richmond, Calif.). The amount of proteins measured was used as a correction factor for determining the relative amount of medium to be assayed for each individual RIA for insulin.

For the next test, the system named is ARIP and PANC-1 cells. Description: GLP-1 receptor (GLP-R) mRNA by cycle-titration RT-PCR. Type of test: cell-based. Conditions: GLP-1 10 nM for 72 h, transfected and non-transfected cells. The method, then:
FIGS. 9A-C show GLP-1 receptor expression in ARIP and PANC-1 cells. ARIP and PANC-1 cells (transfected with human IDX-1, or solely with the neomycin resistant gene) were cultured in serum-free medium and treated with GLP-1 (10 nM), or vehicle alone, for 72 h. RT-PCR for GLP-R and β-actin was performed with a cycle-titration PCR (15, 20, 25, 30 PCR cycles) to assess the relative abundance of GLP-R transcript. Primers for both transcripts were added together in a single PCR-reaction for each individual sample. […] Each experiment was repeated four times, using RNA samples from independent cultures. The blots on the left represent one individual experiment, while the graphs on the right are the average of four independent experiments. The numeric values in the graphs represent the ratio of GLP-R mRNA to actin mRNA.
Treatment with GLP-1 induces the differentiation of ductal epithelial cells into insulin-producing cells. FIG. 2 illustrates a series of cell cultures grown with or without GLP-1 (10 nM) for 72 h. […] Preabsorption of the antibody with an excess of human recombinant insulin prevented the staining of insulin-positive GLP-1 treated cells (data not shown). While treatment with GLP-1 turned the majority of ARIP cells into glucokinase mRNAs, the same PCR conditions as described above were used in the presence of gene-specific primers. […]

In test [1] the test system is glucose-intolerant aging Wistar rats. The following applies: cited from earlier work.

For glucagon-like peptide-1 [GLP-1], in the test on PANC-1/IDX-1 cells (GLP-1 10 nM for 72 h), the “effect on expression level of IDX-1” value is on record as “further increase”. Also, the “cells expressing IDX-1” value in the test on PANC-1/IDX-1 cells (GLP-1 or vehicle, 400 cells counted) is about 100%. In addition, in the test with PANC-1 cells (parental PANC-1, 12 mM glucose, various GLP-1 concentrations), the “insulin secretion in response to GLP-1” value is recorded as “did not secrete insulin”. The “insulin secretory response with increasing glucose” value with PANC-1 cells (wild-type PANC-1, GLP-1 10 nM for 72 h, data not shown) is reported as “No insulin secretory response”. Also, the “effect on GLP-R mRNA levels” value in the test on ARIP and PANC-1 cells is recorded as “further modest increase (no-statistically significant)”. Also, in test [1], the “effect on glucose tolerance” value is on record as “restored normal glucose tolerance” and the “effect on islet cell proliferation” value is “induced islet cell proliferation”.
